Data reported in PMC5218480 (PLoS ONE, 2017).

System: MV-4-11 cells
Assay: Gene expression microarray analysis (Affymetrix PrimeView) and GSEA
Assay type: cell-based, human
Parameters: RFU PODN (11730768_x_at) / Fold change /veh PODN (11730768_x_at) / RFU LINC00158 (11744669_a_at) / Fold change /veh LINC00158 (11744669_a_at) / RFU DUSP10 (11751237_a_at) / Fold change /veh DUSP10 (11751237_a_at) / RFU ID3 (11757404_x_at) / Fold change /veh ID3 (11757404_x_at) / RFU PLEKHG5 (11737974_s_at) / Fold change /veh PLEKHG5 (11737974_s_at) / RFU LRRC4B (11730491_at) / Fold change /veh LRRC4B (11730491_at) / RFU GIMAP4 (11747438_a_at) / Fold change /veh GIMAP4 (11747438_a_at) / RFU KRT8 (11758183_x_at) / Fold change /veh KRT8 (11758183_x_at) / RFU CNN1 (11734310_a_at) / Fold change /veh CNN1 (11734310_a_at) / RFU VPS37D (11726825_at) / Fold change /veh VPS37D (11726825_at) / RFU C10orf10 (11716522_x_at) / Fold change /veh C10orf10 (11716522_x_at) / RFU KIR2DL2 /// KIR2DL4 /// KIR2DL5A /// KIR2DL5B /// KIR2DS1 /// KIR2DS2 /// KIR2DS3 /// KIR2DS4 /// KIR3DL3 /// KIR3DL3 /// KIR3DS1 (11738374_at) / Fold change /veh KIR2DL2 /// KIR2DL4 /// KIR2DL5A /// KIR2DL5B /// KIR2DS1 /// KIR2DS2 /// KIR2DS3 /// KIR2DS4 /// KIR3DL3 /// KIR3DL3 /// KIR3DS1 (11738374_at) / RFU C1QL1 (11718748_at) / Fold change /veh C1QL1 (11718748_at) / RFU TMPRSS4 (11747572_a_at) / Fold change /veh TMPRSS4 (11747572_a_at) / RFU HAMP (11756126_x_at) / Fold change /veh HAMP (11756126_x_at) / RFU RNFT2 (11725882_a_at) / Fold change /veh RNFT2 (11725882_a_at) / RFU NR4A2 (11747474_a_at) / Fold change /veh NR4A2 (11747474_a_at) / RFU ABCC12 (11746883_a_at) / Fold change /veh ABCC12 (11746883_a_at) / RFU TMEM136 (11760407_x_at) / Fold change /veh TMEM136 (11760407_x_at) / RFU CLDN22 /// WWC2 (11732394_at) / Fold change /veh CLDN22 /// WWC2 (11732394_at) / RFU HLA-DPB1 (11760878_x_at) / Fold change /veh HLA-DPB1 (11760878_x_at) / RFU SPINT1 (11716480_a_at) / Fold change /veh SPINT1 (11716480_a_at) / RFU GAP43 (11754022_s_at) / Fold change /veh GAP43 (11754022_s_at) / RFU A4GNT (11735810_at) / Fold change /veh A4GNT (11735810_at) / RFU PRB3 (11715151_x_at) / Fold change /veh PRB3 (11715151_x_at) / RFU TUBB4B (11761932_at) / Fold change /veh TUBB4B (11761932_at) / RFU CAPN14 (11732068_a_at) / Fold change /veh CAPN14 (11732068_a_at) / RFU TMCC2 (11721928_a_at) / Fold change /veh TMCC2 (11721928_a_at) / RFU IRGQ (11745062_a_at) / Fold change /veh IRGQ (11745062_a_at) / RFU FAM174B (11720279_a_at) / Fold change /veh FAM174B (11720279_a_at) / RFU TMPRSS4 (11748680_a_at) / Fold change /veh TMPRSS4 (11748680_a_at) / RFU FAM212B (11763350_a_at) / Fold change /veh FAM212B (11763350_a_at) / RFU PLEKHG5 (11743358_a_at) / Fold change /veh PLEKHG5 (11743358_a_at) / RFU ZSCAN30 (11745921_a_at) / Fold change /veh ZSCAN30 (11745921_a_at) / RFU CMKLR1 (11741424_a_at) / Fold change /veh CMKLR1 (11741424_a_at) / RFU LOC101060620 /// MAPK8IP1 (11723275_at) / Fold change /veh LOC101060620 /// MAPK8IP1 (11723275_at) / RFU SPTSSB (11747773_x_at) / Fold change /veh SPTSSB (11747773_x_at) / RFU PRSS12 (11739890_at) / Fold change /veh PRSS12 (11739890_at) / RFU BIN1 (11741810_x_at) / Fold change /veh BIN1 (11741810_x_at) / RFU WNT11 (11732464_a_at) / Fold change /veh WNT11 (11732464_a_at) / RFU C10orf10 (11716521_a_at) / Fold change /veh C10orf10 (11716521_a_at) / RFU C5orf56 (11738089_at) / Fold change /veh C5orf56 (11738089_at) / RFU CYB561 (11721691_x_at) / Fold change /veh CYB561 (11721691_x_at) / RFU ANKRD19P (11752326_a_at) / Fold change /veh ANKRD19P (11752326_a_at) / RFU OR2T12 /// OR2T33 /// OR2T8 (11738714_s_at) / Fold change /veh OR2T12 /// OR2T33 /// OR2T8 (11738714_s_at) / RFU VCAN (11748164_a_at) / Fold change /veh VCAN (11748164_a_at) / RFU JSRP1 (11732532_at) / Fold change /veh JSRP1 (11732532_at) / RFU KRTAP10-11 (11738290_x_at) / Fold change /veh KRTAP10-11 (11738290_x_at) / RFU MYO3A (11730013_a_at) / Fold change /veh MYO3A (11730013_a_at) / RFU EBF3 (11725865_a_at) / Fold change /veh EBF3 (11725865_a_at) / RFU CAMK2N1 (11719241_x_at) / Fold change /veh CAMK2N1 (11719241_x_at) / RFU C5orf56 (11738088_a_at) / Fold change /veh C5orf56 (11738088_a_at) / RFU OLFML3 (11715873_a_at) / Fold change /veh OLFML3 (11715873_a_at) / RFU LOC100653217 /// NTM (11731650_a_at) / Fold change /veh LOC100653217 /// NTM (11731650_a_at) / RFU MAPK11 (11762145_a_at) / Fold change /veh MAPK11 (11762145_a_at) / RFU FIZ1 (11724087_x_at) / Fold change /veh FIZ1 (11724087_x_at) / RFU OASL (11726364_x_at) / Fold change /veh OASL (11726364_x_at) / RFU SOX15 (11748057_x_at) / Fold change /veh SOX15 (11748057_x_at) / RFU CD79A (11719716_a_at) / Fold change /veh CD79A (11719716_a_at) / RFU HIST1H1D (11736915_at) / Fold change /veh HIST1H1D (11736915_at) / RFU CASKIN2 (11723855_a_at) / Fold change /veh CASKIN2 (11723855_a_at) / RFU LOC730098 (11760151_x_at) / Fold change /veh LOC730098 (11760151_x_at) / RFU OR4N2 (11742367_at) / Fold change /veh OR4N2 (11742367_at) / RFU PRRT2 (11749266_a_at) / Fold change /veh PRRT2 (11749266_a_at) / RFU SNX32 (11753110_a_at) / Fold change /veh SNX32 (11753110_a_at) / RFU CDHR5 (11726645_a_at) / Fold change /veh CDHR5 (11726645_a_at) / RFU RCAN1 (11760418_a_at) / Fold change /veh RCAN1 (11760418_a_at) / RFU FAM167A (11723789_a_at) / Fold change /veh FAM167A (11723789_a_at) / RFU FAM26E (11764081_at) / Fold change /veh FAM26E (11764081_at) / RFU ISYNA1 (11749810_s_at) / Fold change /veh ISYNA1 (11749810_s_at) / RFU ACY1 (11761880_at) / Fold change /veh ACY1 (11761880_at) / RFU 11764098_at / Fold change /veh 11764098_at / RFU SAMD14 (11745864_x_at) / Fold change /veh SAMD14 (11745864_x_at) / RFU NPB (11741838_a_at) / Fold change /veh NPB (11741838_a_at) / RFU TMPRSS6 (11731388_a_at) / Fold change /veh TMPRSS6 (11731388_a_at) / RFU KRTAP10-2 (11738614_at) / Fold change /veh KRTAP10-2 (11738614_at) / RFU ARHGAP8 /// PRR5-ARHGAP8 (11727945_x_at) / Fold change /veh ARHGAP8 /// PRR5-ARHGAP8 (11727945_x_at) / RFU KRTAP5-7 /// NADSYN1 (11734609_at) / Fold change /veh KRTAP5-7 /// NADSYN1 (11734609_at) / RFU RASL12 (11751679_a_at) / Fold change /veh RASL12 (11751679_a_at) / RFU CDKN2B (11736163_a_at) / Fold change /veh CDKN2B (11736163_a_at) / RFU PRF1 (11729649_at) / Fold change /veh PRF1 (11729649_at) / RFU, ZNF638 /// ZNF638-IT1 / Fold change vs veh, ZNF638 /// ZNF638-IT1 / RFU, PANK3 / Fold change vs veh, PANK3 / RFU, SH3YL1 / Fold change vs veh, SH3YL1 / RFU, ZEB2 / Fold change vs veh, ZEB2 / RFU, NRIP1 / Fold change vs veh, NRIP1 / RFU, PTTG1IP / Fold change vs veh, PTTG1IP / RFU, CAPN2 / Fold change vs veh, CAPN2 / RFU, MED14 / Fold change vs veh, MED14 / RFU, SNORA58 / Fold change vs veh, SNORA58 / RFU, C1orf63 / Fold change vs veh, C1orf63 / RFU, LRRFIP1 / Fold change vs veh, LRRFIP1 / RFU, NDUFAF7 / Fold change vs veh, NDUFAF7 / RFU, SLC12A2 / Fold change vs veh, SLC12A2 / RFU, IBTK / Fold change vs veh, IBTK / RFU, ESF1 / Fold change vs veh, ESF1 / Fold change vs veh, TMEM50B / RFU, TAOK1 / Fold change vs veh, TAOK1 / RFU, ACBD3 / Fold change vs veh, ACBD3 / RFU, TMA16 / Fold change vs veh, TMA16 / RFU, RWDD3 / Fold change vs veh, RWDD3 / RFU, BCAT1 / Fold change vs veh, BCAT1 / RFU, EDEM3 / Fold change vs veh, EDEM3 / RFU, TMEM33 / Fold change vs veh, TMEM33 / RFU, WDR75 / Fold change vs veh, WDR75 / RFU, AHCTF1 / Fold change vs veh, AHCTF1 / RFU, TFRC / Fold change vs veh, TFRC / RFU, ZDHHC17 / Fold change vs veh, ZDHHC17 / RFU, NOM1 / Fold change vs veh, NOM1 / RFU, ARL8B / Fold change vs veh, ARL8B / RFU, ZBTB11 / Fold change vs veh, ZBTB11 / RFU, TAMM41 / Fold change vs veh, TAMM41 / RFU, KIAA1704 /// LOC100996395 / Fold change vs veh, KIAA1704 /// LOC100996395 / RFU, ING1 / Fold change vs veh, ING1 / RFU, TRMT61B / Fold change vs veh, TRMT61B / RFU, FUBP3 / Fold change vs veh, FUBP3 / RFU, TP53 / Fold change vs veh, TP53 / RFU, TNKS2 / Fold change vs veh, TNKS2 / RFU, ZFP14 / Fold change vs veh, ZFP14 / RFU, ACTR2 / Fold change vs veh, ACTR2 / RFU, PPP3R1 / Fold change vs veh, PPP3R1 / RFU, PIK3R1 / Fold change vs veh, PIK3R1 / RFU, HNRNPA1 / Fold change vs veh, HNRNPA1 / RFU, RNF170 / Fold change vs veh, RNF170 / RFU, ZNF28 / Fold change vs veh, ZNF28 / RFU, RNGTT / Fold change vs veh, RNGTT / RFU, OGT / Fold change vs veh, OGT / RFU, BRD1 / Fold change vs veh, BRD1 / RFU, MARS / Fold change vs veh, MARS / RFU, ZNF655 / Fold change vs veh, ZNF655 / RFU, FAHD1 / Fold change vs veh, FAHD1 / RFU, BDP1 / Fold change vs veh, BDP1 / RFU, LRRCC1 / Fold change vs veh, LRRCC1 / RFU, ARID1A / Fold change vs veh, ARID1A / RFU, ZNF146 / Fold change vs veh, ZNF146 / RFU, ZNF330 / Fold change vs veh, ZNF330 / RFU, GPN3 / Fold change vs veh, GPN3 / RFU, C9orf123 / Fold change vs veh, C9orf123 / RFU, N4BP2L2 / Fold change vs veh, N4BP2L2 / RFU, ARFIP1 / Fold change vs veh, ARFIP1 / RFU, FAM179B / Fold change vs veh, FAM179B / RFU, BCL10 / Fold change vs veh, BCL10 / RFU, UHRF1BP1L / Fold change vs veh, UHRF1BP1L / RFU, BET1 / Fold change vs veh, BET1 / RFU, CNOT2 / Fold change vs veh, CNOT2 / RFU, ZNF268 / Fold change vs veh, ZNF268 / Fold change vs veh, ZNF507 / RFU, DGCR2 / Fold change vs veh, DGCR2 / RFU, WDSUB1 / Fold change vs veh, WDSUB1 / Fold change vs veh, HSP90B1 /// MIR3652 / RFU, ADSS / Fold change vs veh, ADSS / RFU, GK / Fold change vs veh, GK / RFU, ZNF148 / Fold change vs veh, ZNF148 / RFU, TAF9 / Fold change vs veh, TAF9 / RFU, SLC1A5 / Fold change vs veh, SLC1A5 / RFU, SLMO2 / Fold change vs veh, SLMO2 / RFU, ABCC4 / Fold change vs veh, ABCC4 / RFU, LOC101060439 /// RAP1B / Fold change vs veh, LOC101060439 /// RAP1B / RFU, RFX7 / Fold change vs veh, RFX7 / RFU, GTPBP10 / Fold change vs veh, GTPBP10 / RFU, CNEP1R1 / Fold change vs veh, CNEP1R1 / RFU, BIVM-ERCC5 /// ERCC5 / Fold change vs veh, BIVM-ERCC5 /// ERCC5 / RFU, ILF3 / Fold change vs veh, ILF3 / RFU 11762660_at / Fold change /veh 11762660_at / RFU VCAN (11757783_s_at) / Fold change /veh VCAN (11757783_s_at) / RFU DDX43 (11728927_at) / Fold change /veh DDX43 (11728927_at) / RFU KRT8 (11758188_x_at) / Fold change /veh KRT8 (11758188_x_at) / RFU NKD1 (11759106_at) / Fold change /veh NKD1 (11759106_at) / RFU SRD5A1 (11742802_a_at) / Fold change /veh SRD5A1 (11742802_a_at) / RFU TPSAB1 /// TPSB2 (11721975_s_at) / Fold change /veh TPSAB1 /// TPSB2 (11721975_s_at) / RFU GSTM3 (11746129_a_at) / Fold change /veh GSTM3 (11746129_a_at) / RFU IL23R (11737362_x_at) / Fold change /veh IL23R (11737362_x_at) / RFU TMEM51 (11727254_a_at) / Fold change /veh TMEM51 (11727254_a_at) / RFU PIWIL2 (11732686_x_at) / Fold change /veh PIWIL2 (11732686_x_at) / RFU ORM1 (11744905_x_at) / Fold change /veh ORM1 (11744905_x_at) / RFU CCDC152 (11743942_at) / Fold change /veh CCDC152 (11743942_at) / RFU ECM1 (11717891_a_at) / Fold change /veh ECM1 (11717891_a_at) / RFU IL23R (11748794_a_at) / Fold change /veh IL23R (11748794_a_at) / RFU TNFAIP8L3 (11732012_x_at) / Fold change /veh TNFAIP8L3 (11732012_x_at) / RFU MBOAT4 (11741988_at) / Fold change /veh MBOAT4 (11741988_at) / RFU 11764193_at / Fold change /veh 11764193_at / RFU TMEM53 (11763286_at) / Fold change /veh TMEM53 (11763286_at) / RFU MAGEB2 (11727129_at) / Fold change /veh MAGEB2 (11727129_at) / RFU TMEM200A (11744735_a_at) / Fold change /veh TMEM200A (11744735_a_at) / RFU CCDC152 (11751479_a_at) / Fold change /veh CCDC152 (11751479_a_at) / RFU FAM211A (11726209_a_at) / Fold change /veh FAM211A (11726209_a_at) / RFU RGS16 (11746705_a_at) / Fold change /veh RGS16 (11746705_a_at) / RFU VCAN (11755009_s_at) / Fold change /veh VCAN (11755009_s_at) / RFU RHOB (11743442_s_at) / Fold change /veh RHOB (11743442_s_at) / RFU RGS16 (11720943_a_at) / Fold change /veh RGS16 (11720943_a_at) / RFU RGS16 (11720944_at) / Fold change /veh RGS16 (11720944_at) / RFU, VPS4B / Fold change vs veh, VPS4B / RFU, CREB1 / Fold change vs veh, CREB1 / RFU, DNAJC13 / Fold change vs veh, DNAJC13 / RFU, GNAQ / Fold change vs veh, GNAQ / RFU, CDK5R1 / Fold change vs veh, CDK5R1 / RFU, ZRANB3 / Fold change vs veh, ZRANB3 / RFU, CUL4A / Fold change vs veh, CUL4A / RFU, CCNY / Fold change vs veh, CCNY / RFU, UFL1 / Fold change vs veh, UFL1 / RFU, COG3 / Fold change vs veh, COG3 / RFU, DIAPH2 / Fold change vs veh, DIAPH2 / RFU, SKA2 / Fold change vs veh, SKA2 / RFU, AFF3 / Fold change vs veh, AFF3 / RFU, LMF1 / Fold change vs veh, LMF1 / RFU, IPO11 / Fold change vs veh, IPO11 / RFU, DFFB / Fold change vs veh, DFFB / RFU, FOXP1 / Fold change vs veh, FOXP1 / RFU, CARD8 / Fold change vs veh, CARD8 / RFU, STRN3 / Fold change vs veh, STRN3 / RFU, ADK / Fold change vs veh, ADK / RFU, RASSF2 / Fold change vs veh, RASSF2 / RFU, WIPF1 / Fold change vs veh, WIPF1 / RFU, LARP1B / Fold change vs veh, LARP1B / RFU, RASA1 / Fold change vs veh, RASA1 / RFU, RB1 / Fold change vs veh, RB1 / RFU, PPFIA1 / Fold change vs veh, PPFIA1 / RFU, MAT2A / Fold change vs veh, MAT2A / RFU, CCT5 / Fold change vs veh, CCT5 / RFU, WDR92 / Fold change vs veh, WDR92 / RFU, CUX1 / Fold change vs veh, CUX1 / RFU, TTC7A / Fold change vs veh, TTC7A / RFU, TMEM135 / Fold change vs veh, TMEM135 / RFU, DEPTOR / Fold change vs veh, DEPTOR / RFU, CPM / Fold change vs veh, CPM / RFU, DNAJB6 / Fold change vs veh, DNAJB6 / RFU, CACNA2D3 / Fold change vs veh, CACNA2D3 / RFU, DTX4 / Fold change vs veh, DTX4 / RFU, TFCP2 / Fold change vs veh, TFCP2 / RFU, GMCL1 /// GMCL1P1 / Fold change vs veh, GMCL1 /// GMCL1P1 / RFU, AEBP2 / Fold change vs veh, AEBP2 / RFU, SNHG1 /// SNORD22 /// SNORD25 /// SNORD26 /// SNORD27 /// SNORD28 /// SNORD29 /// SNORD31 / Fold change vs veh, SNHG1 /// SNORD22 /// SNORD25 /// SNORD26 /// SNORD27 /// SNORD28 /// SNORD29 /// SNORD31 / Fold change (Aza/veh), C12orf56 (ProbeSet 11735607_a_at) / Fold change (ACY-1035/veh), C12orf56 (ProbeSet 11735607_a_at) / Fold change (Aza/veh), FGFR1OP (ProbeSet 11751329_s_at) / Fold change (ACY-1035/veh), FGFR1OP (ProbeSet 11751329_s_at) / Fold change (Aza/veh), VPS36 (ProbeSet 11739960_a_at) / Fold change (ACY-1035/veh), VPS36 (ProbeSet 11739960_a_at) / RFU SYPL1 (11715823_x_at) / Fold change /veh SYPL1 (11715823_x_at) / RFU IGFBP7 (11715501_s_at) / Fold change /veh IGFBP7 (11715501_s_at) / RFU REEP3 (11722064_at) / Fold change /veh REEP3 (11722064_at) / RFU IGLL1 (11728026_x_at) / Fold change /veh IGLL1 (11728026_x_at): dose or concentration left out as unconfirmed
Details: ProbeSet 11725885_a_at; LIST B

Nc1ncn([C@@H]2O[C@H](CO)[C@@H](O)[C@H]2O)c(=O)n1 [azacitidine]
Fold change vs veh, CNEP1R1: 0.86
